Key:
[1] = system: faba bean; test: Faba bean seed germination and flowering; type: in vivo; conditions: 10 μM compound
Text: (§1) Fifty four lentil genotypes were selected for the experiment based on the existing data on the number of days it takes them to emerge and days to flowering. The seeds of each genotype were scarified before sowing and subjected to 3 treatments. VWR 415 9 cm filter papers were placed inside VWR 100 mm plastic petri dishes. Each petri dish was labeled on both the top and the bottom. Ten seed from each line was place in a labelled petri dish. Each lentil or faba bean genotype was replicated 3 times and subjected to 3 treatments (total number of experimental petri dishes=531). Thus: • 1. ABA exemplary compound solution [10 μM exemplary ABA analog compound 1019 in 1% DMSO, 99% H2O (LL10.1014.1) NaSaH (SL-1-16-1-53)] • 2. No exemplary ABA analogue solution (1% DMSO, 99% H2O) • 3. Distilled water—control
Seven milliliters of either exemplary ABA analogue solution, solution with no exemplary ABA analogue or distill water (control) was added into the corresponding labelled petri dishes containing the 10 scarified lentil seeds. For faba, bean, 10 ml because of their large seed size. The petri dishes were placed in a dark cupboard. […]
Germination was considered for a seed when a tiny radicle at least 5 mm or greater had emerged from the seed. The number of seeds that germinated was counted and recorded at 48 and 96 hours; and at 7 days. […]

[2] = system: barley; test: Barley radical elongation assay; type: in vivo; conditions: 10 μM 1019 alone, 3.0 days post treatment (FIG. 11B)
Description: (§2) Seeds were surface sterilized by incubation in 10% bleach for 20 min with shaking, then rinsed four times with sterile water. Four ml of test solutions were pipetted into petri dishes (100×15 mm) that contain a single filter paper. Fifteen seeds were added to each dish. For rice, barely, and wheat, the experiment involved five treatments (5 μM ABA; 5 μM ABA+10 μM 1019; 10 μM 1019; water control; water+EtOH+NaOH control), with three replications per treatment. For sorghum, treatments were 10 μM ABA; 10 μM ABA+20 μM 1019; 20 μM 1019; water control; water+EtOH+NaOH control. Dishes were sealed with Parafilm, and incubated in the dark at room temperature. Radical length was measured daily post emergence using ImageJ software; shown are 3 days post treatment for barley, wheat and sorghum and 4.5 days post treatment for rice.

[3] = system: ABA-inducible promoter of the MKKK18 gene (GUS reporter); test: ABA-inducible gene expression, MKKK18GUS reporter plants; type: in vivo, Arabidopsis; parameters: antagonist effect, GUS staining: dose or concentration left out as unconfirmed
Description: Transgenic MKKK18GUS Arabidopsis plants harbor an […] (GUS) reporter gene fused to an ABA-inducible promoter of the MKKK18 gene (Okamoto et al. 2013). Six-day-old MKKK18GUS plants were treated with ABA1019 alone or both ABA1019 and ABA for 6 hours. Plants were then stained with 5-bromo-4-chloro-3-indolyl-beta-D-glucuronic acid cyclohexyl ammonium salt (X-Glc) for 14 hours, and destained with 70% ethanol.

[4] = system: Canola seed (Nutrien PV200); test: Canola seed germination assay; type: in vivo
Description: For each treatment 6 replicates of 40 seeds were plated into petri dishes lined with two filter papers and 10 mL of test solution. The covered dishes were stored at room temperature in the dark. Germinated seeds were counted every 2 days for 8 days. The following dosages were used when studying the effect of exemplary compounds on canola germination: control 1% DMSO. 10 μM ABA, 100 μM 1019, and 100 μM 1019 plus 10 μM ABA.

[5] = system: Soybean (AAC Edward; 2018); test: Soybean germination assay; type: in vivo
Description: For each treatment 6 replicates of 10 seeds were plated into petri dishes lined with two filter papers and 10 mL of test solution. The covered dishes were stored at room temperature in the dark. Germinated seeds were counted over 24 hours. The following dosages were used when studying the effect of exemplary compounds of the application on soybean germination: control 1% DMSO. 10 μM ABA, 10 μM exemplary compound 1019, 100 um exemplary compound 1019, 10 μM exemplary compound 1019 plus 10 μM ABA and 100 uM exemplary compound 1019 plus 10 μM ABA.

[6] = system: wild and RIL lentil genotypes; test: Seed germination in wild and RIL populations of lentil genotypes; type: in vivo, lentil (L. orientalis, L. nigricans and others)
Text: as §1
Seven milliliters of either exemplary ABA analogue solution, solution with no exemplary ABA analogue or distill water (control) was added into the corresponding labelled petri dishes containing the 10 scarified lentil seeds. For faba, bean, 10 ml because of their large seed size. The petri dishes were placed in a dark cupboard. Two digital temperature and humidity loggers (Tinytag) were placed inside the cupboards to monitor environmental conditions.
Germination was considered for a seed when a tiny radicle at least 5 mm or greater had emerged from the seed. The number of seeds that germinated was counted and recorded at 48 and 96 hours; and at 7 days. Some of the genotypes of interest were photographed (AF-S Micro NIKKOR 60 mm 1:2.8G camera) for comparison purpose. However, an excel sheet showing all results is available. At 48 hours, a total of 22 genotypes and their replicates were selected from the petri dishes treated with exemplary compound and distilled water were transplanted into pots (for faba bean) and trays (for lentils) in order to assess the length of time they took to flower while the rest of the petri dishes were kept till the end of the experiment that lasted a week.
The average temperature in the cupboards was 22.5° C. (±0.3) while the relative humidity ranged from 52.4 to 80.7 percent for the duration of the experiment. Studies carried out by Linda Gorim and Devini De. Silva, University of Saskatchewan

[7] = system: Canary seed (CDC Bastia; 2018); test: Canary seed germination assay; type: in vivo
[8] = system: Lentil (CDC Maxim); test: Lentil (CDC Maxim) seed germination assay; type: in vivo
Description: 40 seeds were counted for each 100×15 mm petri dishes. Each petri dish contained two filter papers and 10 mL of test solutions. Then, they were wrapped with aluminium foil to cut off light. Wrapped plates were kept on lab bench at room temperature. Germinated seeds were counted everyday until one treatment reaches 100% germination (two days). Only light exposure was during plate counting. […]
All seeds from this experiment have been rinsed first with tap water and then with dH2O, frozen in liquid nitrogen and stored at −80° C. freezer.

[9] = system: Botrytis cinerea; test: Pathogenicity test on detached Arabidopsis thaliana leaves; type: in vivo
[10] = system: wheat; test: Wheat radical elongation assay; type: in vivo; conditions: 10 μM 1019 alone, 3.0 days post treatment (FIG. 11C)
Description: as §2

## CC1=C(C#Cc2ccccc2)C(=O)CC(C)(C)[C@@]1(O)/C=C/C(C)=C\C(=O)O [Compound 1019, (2Z,4E)-5-((S)-1-Hydroxy-2,6,6-trimethyl-4-oxo-3-(phenylethynyl)cyclohex-2-en-1-yl)-3-methylpenta-2,4-dienoic acid]
[1]
  germination rates: no significant effect
[1]; transplanted at 48 hours
  days to flowering: nor did it significantly affect
[2]
  radical length (Least Square mean); radical elongation: 2.83
[3]; 2.5 μM applied alone, 6 hours
  agonist activity, GUS staining: weak agonist activity
[3]; 1:1 ratio with ABA
  GUS staining compared to ABA alone: a reduction in the GUS staining
[3]; co-applied with ABA, dose dependent
  antagonist effect, GUS staining: potent antagonist effect
[3]; ratio of compound to ABA 10:1
  GUS staining compared to ABA alone: abolition of the ABA GUS stain
[4]; 100 μM compound alone, compared to control
  canola seed germination: did not significantly affect
[4]; 100 μM compound plus 10 μM ABA
  canola seed germination: restored to near control levels
[5]; 10 and 100 μM compound in the presence of 10 μM ABA
  soybean seed germination: overcame the inhibition
[5]; compound alone at 10 or 100 μM
  soybean seed germination: did not affect
[6]; L. nigricans IG-72551 seeds, at 2 days, 10 μM compound
  germination: 100%
[6]; L. orientalis IG72770, day 2, 10 μM compound
  germination: 40%
[6]; L. orientalis IG72770, day 3, 10 μM compound
  germination: 75%
[6]; L. orientalis IG72770, day 4, 10 μM compound
  germination: 100%
[6]; all genotypes that responded, 10 μM compound
  germination uniformity between replicates: eliminated the variable germination rates
[6]; lentil, transplanted at 48 hours, 10 μM compound
  days to flowering: nor did it significantly affect
[6]; of 54 lentil genotypes screened, over 4 days, 10 μM compound
  number of lentil genotypes that responded positively (improved germination rate): 18
[7]; 10 μM compound plus 10 μM ABA, day 4
  canary seed germination: did not
[7]; 100 μM compound plus 10 μM ABA, day 4
  canary seed germination: overcame inhibition
[7]; compound alone, 10 μM or 100 μM
  canary seed germination: Neither concentration of exemplary compound 1019 affected germination
[8]; 10 μM ABA plus 10 μM compound (FIG. 6C)
  lentil seed germination, antagonism of ABA: strongest antagonist
[8]; 10 μM compound and 10 μM compound plus 10 μM ABA (FIG. 5)
  lentil seed germination: promoted
[8]; 100 μM compound plus 10 μM ABA (FIG. 6B)
  lentil seed germination: overcame the effect
[9]; 100 μM spray, 24 hours post inoculation (FIG. 14)
  disease lesions: smaller lesions
[9]; 100 μM spray, preliminary results
  disease development caused by B. cinerea: partially inhibits
[9]; plants sprayed with 100 μM, versus mock control
  symptom development: slower
[10]
  radical length (Least Square mean); radical elongation: 2.386

From patent US12063929B2, “3′-alkynyl abscisic acid derivatives as ABA antagonists” (University of Saskatchewan, priority 2018, dated 2024)
